Experimental data taken from patent publication US10849897B2, “Pyridyl derivatives as bromodomain inhibitors” (GLAXOSMITHKLINE INTELLECTUAL PROPERTY (NO.2) LIMITED, priority 2017, dated 2020).

Key:
BRD4 BD2 = molecular target: T1, BRD4 BD2 (Homo sapiens, UniProt O60885, Y97A); assay: BRD4 BD2 TR-FRET competition assay; type: binding; details: TR-FRET competition with Reference Compound X; read-out: pIC50 in the BRD4 BD2 assay (converted)
T1 construct: BRD4 (1-477) (Y97A) and (Y390A); made in house; host or cells: E. coli (pET15b vector)
Procedure: (§1) Bromodomain binding was assessed utilising a time resolved fluorescent resonance energy transfer (TR-FRET) competition assay. To enable this approach a known, high affinity, pan-BET interacting small molecule was labelled with Alexa Fluor® 647, which is a far-red-fluorescent dye (Reference Compound X). Reference Compound X acts as a reporter of bromodomain binding and is the acceptor fluorophore component of the TR-FRET pair. Europium chelate, conjugated to an anti-6*His antibody, was utilised as the donor fluorophore in the TR-FRET pair. The anti-6*His antibody binds selectively to a six Histidine purification epitope added to the amino-terminus of each of the BET tandem bromodomain protein constructs used in this study. A TR-FRET signal is generated when the donor and acceptor fluorophores are in close proximity, between 20-80 Å, which is enabled in this assay by binding of Reference Compound X to the bromodomain protein.
(§2) In order to generate a TR-FRET signal, donor fluorophore is excited by a laser at λ337 nm, which subsequently leads to emission at λ618 nm. If the acceptor fluorophore is in close proximity then energy transfer can occur, which leads to emission of Alexa Fluor® 647 at λ665 nm. In the presence of competitor compound, Reference Compound X can be displaced from binding to the bromodomain. If displacement occurs, the acceptor fluorophore is no longer in proximity to the donor fluorophore, which prevents fluorescent energy transfer and, subsequently, a loss of Alexa Fluor® 647 emission at λ665 nm.
(§3) The competition of the compounds of formula (I) with Reference Compound X for binding to the BET family (BRD2, BRD3, BRD4 and BRDT) was assessed using protein truncates spanning both bromodomain 1 (BD1) and bromodomain 2 (BD2). In order to monitor differential binding to either BD1 or BD2, single residue mutations of key tyrosines to alanine were made in the acetyl lysine binding pockets. To validate this approach, a double residue mutant tandem domain protein was produced for each of the BET family members. Utilising a Fluorescence Polarisation approach, binding affinities for each of the single and double mutants for Reference Compound X were determined. […] The affinities of the single mutated bromdomain tandem proteins for Reference Compound X were equi-potent with the corresponding non-mutated BET protein. […] In the TR-FRET competition assay, Reference Compound X is used at a concentration that is equivalent to the Kd for the non-mutated bromodomain, which ensures that no binding at the mutated bromodomain is detected.
(§4) Recombinant Human Bromodomains [(BRD2 (1-473) (Y113A) and (Y386A), BRD3 (1-435) (Y73A) and (Y348A) BRD4 (1-477) (Y97A) and (Y390A) and BRDT (1-397) (Y66A) and (Y309A)] were expressed in E. coli cells (in pET15b vector for BRD2/3/4 and in pET28a vector for BRDT) with a 6-His tag at the N-terminal. The His-tagged Bromodomain pellet was resuspended in 50 mM HEPES (pH 7.5), 300 mM NaCl, 10 mM imidazole & 1 μL/mL protease inhibitor cocktail and extracted from the E. coli cells using sonication and purified using a nickel sepharose high performance column, the proteins were washed and then eluted with a linear gradient of 0-500 mM imidazole with buffer 50 mM HEPES (pH 7.5), 150 mM NaCl, 500 mM imidazole, over 20 column volumes. Final purification was completed by Superdex 200 prep grade size exclusion column. Purified protein was stored at −80° C. in 20 mM HEPES pH 7.5 and 100 mM NaCl. Protein identity was confirmed by peptide mass fingerprinting and predicted molecular weight confirmed by mass spectrometry.
All assay components were dissolved in an assay buffer composing of 50 mM HEPES pH 7.4, 50 mM NaCl, 5% Glycerol, 1 mM DTT and 1 mM CHAPS. Reference Compound X was diluted, in assay buffer containing 20 nM single mutant, tandem bromodomain protein, to a concentration equivalent to 2*Kd for this bromodomain. […]

BRD4 BD1 and BRD4 BD2 = BRD4 BD1 and BRD4 BD2 TR-FRET assays (selectivity for BRD4 BD2 over BRD4 BD1); type: binding, Human; details: for selectivity for BRD4 BD2 over BRD4 BD1: BRD4 BD2 pIC50 − BRD4 BD1 pIC50, in at least one of the TR-FRET assays
Procedure: as §1, §2, §3
as §4, with “Protein identity was confirmed by peptide mass fingerprinting and predicted molecular weight confirmed by mass spectrometry.” left out

[1] = system: BET family (BRD2, BRD3, BRD4 and BRDT) tandem bromodomain proteins; assay: Fluorescence Polarisation binding of Reference Compound X to single and double mutant tandem BET proteins; set-up: species or system Human; details: single residue (Tyr to Ala) mutants
Procedure: as §3, with “detected. […]” for “detected.”

Row | IC50 (BRD4 BD2) | Structure (SMILES) | selectivity for BRD4 BD2 over BRD4 BD1 (BRD4 BD1 and BRD4 BD2) | fold selective for BRD4 BD2 over BRD4 BD1 (BRD4 BD1 and BRD4 BD2; from the pIC50 difference) | affinity of single mutated bromodomain tandem proteins compared with corresponding non-mutated BET protein [1]
1 | 20 nM | CNC(=O)c1cc(C(=O)Nc2cn[nH]c2)cc(C(OC)c2ccccc2)n1 (single isomer, unassigned) [Example 55, (S*)-6-(Methoxy(phenyl)methyl)-N^2-methyl-N^4-(1H-pyrazol-4-yl)pyridine-2,4-dicarboxamide] | 2.7 log unit |  | 
2 | 15.8 nM | CNC(=O)c1cc(C(=O)Nc2cnn(C)c2)cc(Cc2ccccc2)n1 [Example 11, 6-Benzyl-N^2-methyl-N^4-(1-methyl-1H-pyrazol-4-yl)pyridine-2,4-dicarboxamide] | 2.7 log unit |  | 
3 | 10 nM | CNC(=O)c1cc(C(=O)Nc2cn[nH]c2)cc([C@@H](C)c2ccccc2)n1 [Example 16, (S)-N^2-Methyl-6-(1-phenylethyl)-N^4-(1H-pyrazol-4-yl)pyridine-2,4-dicarboxamide] | 3.0 log unit | 1000 fold | 
4 | 1000 to 10000 nM | CNC(=O)c1cc(C(=O)Nc2nc(C)no2)cc([C@@H](C)c2ccccc2)n1 [Example 74, (S)-N^2-Methyl-N^4-(3-methyl-1,2,4-oxadiazol-5-yl)-6-(1-phenylethyl)pyridine-2,4-dicarboxamide] |  |  | 
5 | 1000 to 10000 nM | CNC(=O)c1cc(C(=O)Nc2nnc(C)o2)cc([C@@H](C)c2ccccc2)n1 [Example 75, (S)-N^2-Methyl-N^4-(5-methyl-1,3,4-oxadiazol-2-yl)-6-(1-phenylethyl)pyridine-2,4-dicarboxamide] |  |  | 
6 | 1000 to 10000 nM | CNC(=O)c1cc(C(=O)Nc2nncn2C)cc([C@@H](C)c2ccccc2)n1 [Example 76, (S)-N^2-Methyl-N^4-(4-methyl-4H-1,2,4-triazol-3-yl)-6-(1-phenylethyl)pyridine-2,4-dicarboxamide] |  |  | 

Continued, compound first:

Row | Structure (SMILES) | IC50 (BRD4 BD2) | selectivity for BRD4 BD2 over BRD4 BD1 (BRD4 BD1 and BRD4 BD2) | fold selective for BRD4 BD2 over BRD4 BD1 (BRD4 BD1 and BRD4 BD2; from the pIC50 difference) | affinity of single mutated bromodomain tandem proteins compared with corresponding non-mutated BET protein [1]
7 | CNC(=O)c1cc(C(=O)NCC(C)O)cc(Cc2ccccc2)n1 (racemic) [Example 61, (+/−)-6-Benzyl-N^4-(2-hydroxypropyl)-N^2-methylpyridine-2,4-dicarboxamide] | 1000 to 10000 nM |  |  | 
8 | CNC(=O)c1cc(C(=O)Nc2cn[nH]c2)cc(Cc2ccccc2)n1 [Example 12, 6-Benzyl-N^2-methyl-N^4-(1H-pyrazol-4-yl)pyridine-2,4-dicarboxamide] | 20 nM | 2.7 log unit |  | 
9 | CNC(=O)c1cc(C(=O)NCCOC)cc(Cc2cccc(OC)c2)n1 [Example 59, 6-(3-Methoxybenzyl)-N^4-(2-methoxyethyl)-N^2-methylpyridine-2,4-dicarboxamide] | 1000 to 10000 nM |  |  | 
10 | CNC(=O)c1cc(C(=O)NC(C)(C)C)cc(Cc2ccccc2)n1 [Example 66, 6-Benzyl-N^4-(tert-butyl)-N^2-methylpyridine-2,4-dicarboxamide] | 1000 to 10000 nM |  |  | 
11 | COc1ccc2c(c1)C(c1ccc(Cl)cc1)=N[C@@H](CC(=O)NCCCCCNC(=O)CCCCCC1(C)/C(=C/C=C/C=C/C3=[N+](CCCCS(=O)(=O)O)c4ccc(S(=O)(=O)O)cc4C3(C)C)N(CCCCS(=O)(=O)[O-])c3ccc(S(=O)(=O)O)cc31)c1nnc(C)n1-2 (stereo partly shown) [Reference Compound X] |  |  |  | equi-potent
